Data reported in paper PMC7002685, “Inhibition of vascular calcification by inositol phosphates derivatized with ethylene glycol oligomers” (Nature Communications, 2020).
Several values for one entry are separate records, joined by “and”; a condition that tells them apart may be missing. Identical values can stand only once.

Key:
[1] = 18F-NaF micro-PET/CT uptake on calcified human femoral arteries ex vivo; assay type: binding
Method: To investigate (OEG2)2-IP4 interaction with calcified tissues in a clinically relevant context, a competitive binding assay using ^18F-NaF was applied on severely calcified human femoral arteries and native aortic valves ex vivo. […] First, ^18F-NaF uptake was measured on tissue samples treated with vehicle (human serum) and thereafter, using the same tissue samples, treated with (OEG2)2-IP4 in serum.
Triplicate aliquots of CPP2s (20 µg Ca/mL) in 100 μL assay buffer (100 mM HBS, pH 7.4 (RT)) were incubated for 1 h at RT in the presence of increasing concentrations of compounds in 50 μL Milli-Q water and ^18F-NaF (1 nM) in 50 μL assay buffer, resulting in a total incubation volume of 200 μL (^18F-NaF was prepared using a FASTlab synthesizer (GE Healthcare, Little Chalfont, UK) and commercially available ^18F-NaF cassettes (GE Healthcare)). Maximum radiotracer binding was determined by incubating CPP2s with ^18F-NaF (1 nM) only. The reaction was terminated by rapid filtration through a SOLAμ™ SPE plate (HRP 2 mg/mL 96-well plate, 22 μm; Thermo Fisher Scientific). SPE individual column matrices were washed twice rapidly in assay buffer and radioactivity on the filters determined by an automatic gamma counter (Wizard2 Gamma Counter, Perkin Elmer, Waltham, MA, USA). […]

GABAB1A = molecular target: T1, GABAB1A (Homo sapiens, UniProt Q9UBS5); assay: Off-target 228610; assay type: binding
T1 construct: purchased Eurofins Panlabs Discovery Services Taiwan, Ltd
Method: (§1) The potential off-target activity of 10 µM (OEG2)2-IP4 was assessed against a panel of 87 enzymes, receptors, or ion channels that are used in standard safety pharmacology screens.
(§2) 3.2. Off-target screening assay
(§3) The experiments were conducted by a contract research organization (Eurofins Panlabs Discovery
(§4) Services Taiwan, Ltd.) and details on the respective assays can be retrieved via the catalog number
(§5) provided in Supplementary Table 11 from the company’s webpage
(§6) (https://www.eurofinsdiscoveryservices.com/). […]

[2] = In vitro ionized human serum calcium; assay type: physicochemical
Method: (§7) One potential side effect of inositol phosphate-based drugs is toxicity due to chelation of ionized serum calcium. […] At 100 µM (OEG2)2-IP4, 96 ± 2% of control serum-ionized calcium was measured.
To assess reduction in ionized serum calcium, increasing concentrations of test compounds were incubated in human serum (Human AB serum, off-the-clot, HSER-ABPM; LuBioScience GmbH, Zurich, Switzerland) at RT and free ionized calcium levels were measured subsequently by the o-cresolphthalein method using the calcium colorimetric assay.

[3] = Plasma calcium after s.c. administration in healthy rats; assay type: in vivo, rat; settings: individual rats
Method: as §7
To study PK in healthy animals, male Sprague-Dawley rats (Harlan, Correzzana, Italy) were housed up to three per cage with free access to water and standard chow (pellets 12 mm, global diet 2018 certificate, Mucedola, Srl, Settimo Milanese, Italy), and submitted to a 12-h light/dark cycle. Animals were administered i.v. 10 mg/kg of (OEG2)2-IP4 in saline solution i.v. (30 s bolus, 5 mL/kg) and s.c. (5 mL/kg), respectively, in three animals per route and treatment. […] Plasma calcium concentration was determined in pre-dose samples and in t = 30 min samples of both acute and chronic treatments using the calcium colorimetric assay. Blood samples of 100 µL were drawn at several time points from the caudal vein, centrifuged at (3000 × g, 4 °C, 10 min) and stored at −80 °C until analysis by liquid chromatography–tandem mass spectrometry (LC-MS/MS).

[4] = Protein binding in human plasma (ultrafiltration); assay type: in vitro ADME
Method: For many drugs, the PK profile depends on the patient’s renal status. Therefore, (OEG2)2-IP4 PK profile was also determined in an adenine and high-phosphate-diet-induced rat model of uremia, in which the compound was administered after serum creatinine levels had increased by fourfold relative to baseline (Fig. 4g, h). […] Similar results were observed following s.c. administration (Supplementary Table 5).
as §2
The experiments were conducted by a contract research organization (Eurofins Panlabs Discovery Services Taiwan, Ltd.) and details on the respective assays can be retrieved via the catalog number provided in Supplementary Table 11 from the company’s webpage […]
Concentrations of unbound (OEG2)2-IP4 in ultrafiltrated fractions and total (OEG2)2-IP4 concentrations were measured using a calibration prepared in ultrafiltrated pooled plasma and non-ultrafiltrated pooled plasma, respectively and LC-MS/MS quantification as described in Methods 6.3.
At sacrifice the left tibia of animals of the rat model with dietary adenine/high-phosphate-induced uremia and VC was collected, fixed with 70% v/v EtOH and embedded in methyl methacrylate. […] The total bone area (as percentage of total tissue area), osteoid area (as percentage of total bone area), and mineralized bone area (as percentage of total tissue area) were calculated from the primary measurements. […]

[5] = tested on: Calcium Channel L-Type, Dihydropyridine; assay: Off-target 214600; assay type: binding, Rat; settings: 10 µM
Method: as §1, §2, §3, §4, §5, §6

T1 sequence (Q9UBS5 15-961 limits assumed): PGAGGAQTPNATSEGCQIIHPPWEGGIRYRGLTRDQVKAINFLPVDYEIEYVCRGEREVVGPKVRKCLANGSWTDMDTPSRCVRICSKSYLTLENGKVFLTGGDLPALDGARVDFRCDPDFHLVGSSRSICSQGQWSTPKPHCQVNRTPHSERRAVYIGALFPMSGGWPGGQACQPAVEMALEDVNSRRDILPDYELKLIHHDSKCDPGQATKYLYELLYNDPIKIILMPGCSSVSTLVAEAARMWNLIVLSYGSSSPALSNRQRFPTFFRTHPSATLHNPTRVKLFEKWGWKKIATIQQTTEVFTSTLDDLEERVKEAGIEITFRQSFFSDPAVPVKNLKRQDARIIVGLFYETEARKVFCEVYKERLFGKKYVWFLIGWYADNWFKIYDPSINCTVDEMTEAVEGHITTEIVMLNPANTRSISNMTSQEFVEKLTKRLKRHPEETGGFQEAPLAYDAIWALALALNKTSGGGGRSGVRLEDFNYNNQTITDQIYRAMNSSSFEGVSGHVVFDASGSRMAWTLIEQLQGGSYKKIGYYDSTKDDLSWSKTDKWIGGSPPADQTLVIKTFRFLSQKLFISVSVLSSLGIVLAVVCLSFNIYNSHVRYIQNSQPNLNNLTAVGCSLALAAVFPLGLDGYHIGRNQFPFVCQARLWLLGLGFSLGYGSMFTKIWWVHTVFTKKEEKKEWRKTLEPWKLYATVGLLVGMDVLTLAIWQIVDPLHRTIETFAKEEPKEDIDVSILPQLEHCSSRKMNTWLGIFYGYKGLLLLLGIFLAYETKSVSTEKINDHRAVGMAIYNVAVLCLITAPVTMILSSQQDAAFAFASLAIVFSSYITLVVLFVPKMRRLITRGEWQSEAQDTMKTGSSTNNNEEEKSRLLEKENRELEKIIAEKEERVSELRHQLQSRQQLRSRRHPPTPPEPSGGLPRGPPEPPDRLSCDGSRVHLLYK
T1 sequence (O75899 42-941 partner): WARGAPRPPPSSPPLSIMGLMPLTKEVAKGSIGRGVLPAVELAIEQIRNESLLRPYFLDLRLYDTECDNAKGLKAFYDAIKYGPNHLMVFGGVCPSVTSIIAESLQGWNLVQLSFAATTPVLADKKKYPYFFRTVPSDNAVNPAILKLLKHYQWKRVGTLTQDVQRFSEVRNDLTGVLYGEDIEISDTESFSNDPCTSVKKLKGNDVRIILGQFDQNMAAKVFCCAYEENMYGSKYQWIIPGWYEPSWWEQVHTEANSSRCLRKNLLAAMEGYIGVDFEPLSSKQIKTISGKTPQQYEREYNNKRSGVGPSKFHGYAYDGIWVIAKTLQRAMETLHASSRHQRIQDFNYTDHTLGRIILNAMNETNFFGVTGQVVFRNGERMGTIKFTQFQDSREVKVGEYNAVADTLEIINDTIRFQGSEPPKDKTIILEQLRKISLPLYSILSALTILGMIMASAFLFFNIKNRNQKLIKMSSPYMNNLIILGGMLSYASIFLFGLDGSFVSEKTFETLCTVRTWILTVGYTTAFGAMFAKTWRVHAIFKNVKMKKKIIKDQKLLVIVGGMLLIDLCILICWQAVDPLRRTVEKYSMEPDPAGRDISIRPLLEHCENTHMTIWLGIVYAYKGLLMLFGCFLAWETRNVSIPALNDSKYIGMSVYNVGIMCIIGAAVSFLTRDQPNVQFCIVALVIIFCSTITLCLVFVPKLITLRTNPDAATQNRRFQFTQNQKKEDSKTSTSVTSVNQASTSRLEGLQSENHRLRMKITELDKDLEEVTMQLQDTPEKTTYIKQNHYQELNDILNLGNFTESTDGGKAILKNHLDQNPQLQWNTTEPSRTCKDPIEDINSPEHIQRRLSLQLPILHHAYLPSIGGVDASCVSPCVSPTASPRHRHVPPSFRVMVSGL

COCCOCCO[C@@H]1[C@@H](OP(=O)(O)O)[C@H](OCCOCCOC)[C@@H](OP(=O)(O)O)[C@@H](OP(=O)(O)O)[C@H]1OP(=O)(O)O [(OEG2)2-IP4, 4,6-Di-O-(methoxy-diethyleneglycol)-myo-inositol-1,2,3,5-tetrakis(phosphate)]
change of 18F-NaF uptake vs vehicle ([1]; 8.6 μM in human serum): −38% | maximum average 18F binding (18F-NaF-PET) ([1]; IC90 concentration in human serum, individual samples Fig. 3j, unit not given): 319.764 and 464.582 and 653.422 and 447.312 and 563.189 and 486.153 and 450.235 | inhibition at 10 µM (GABAB1A): -7% | concentration from which difference to IP6 in decrease of serum-ionized calcium became significant [2]: ≥ 600 µM | plasma calcium (Figure 4k) ([3]; Acute, 30 min postdose): 2.45 and 2.725 and 1.925 and 1.85 | plasma calcium (Figure 4k) ([3]; Acute, Predose): 2.8 and 2.45 and 2.3 and 1.975 | plasma calcium (Figure 4k) ([3]; Sub-chronic, 30 min postdose): 2.175 and 2.2 and 2.05 and 1.925 | plasma calcium (Figure 4k) ([3]; Sub-chronic, Predose): 2.275 and 2.3 and 2.55 and 1.925 | protein-bound fraction in healthy human plasma ([4]; total measured concentration 2.8 µg/mL (4 µM)): 58% | protein-bound fraction in healthy human plasma ([4]; total measured concentration 27.5 µg/mL (39.5 µM)): 42% | % Inhibition [5]: 1%
